Test results as given in patent US12194014B2, “Platinum-based amphiphile prodrugs” (NANOMED HOLDINGS PTY LTD, priority 2018, dated 2025).

Columns and labels:
[1] = Mesophase behaviour by polarized optical microscopy (POM); type: physicochemical; conditions: for POM observation on exposure to water: 25° C. and 37° C.; for Appearance of the Lyotropic phase at excess water (25° C.-50° C.): POM, equilibration 1 h
Protocol: Polarized Optical Microscopy (POM): Samples used for Polarized Optical Microscopy (POM) were prepared by placing a small amount of prodrug amphiphile on a microscope slide and covered with a cover slip. Water was placed on the edges of the cover slip and allowed to flow into the sample by capillary action. The microscope slide was placed in a Linkam PE94 hot stage (Linkam Scientific Instruments Ltd. Surrey, England) and heated at 3° C./min between room temperature and 50° C. […] Images were captured with a Nikon DS-Ri-1 camera. All images were taken at 100× magnification.
The formation of lyotropic mesophases is based on the interaction of the prodrug amphiphile with water. Polarized optical microscopy was used to study the liquid crystalline or crystalline structures of the prodrug amphiphiles. This method was used as a preliminary and qualitative investigation to observe the morphological changes of the amphiphile as well as to predict the structural changes of the mesophases which may form upon hydration with water. For each prodrug amphiphile, a small amount of the neat and dry sample was placed on a microscope slide and covered with a cover slip. Water was placed on the edges of the cover slip to allow to flow into the sample by capillary action. Images were captured at 25° C. before and after the addition of water and at 37° C. after exposure to water. 37° C. was selected due to its physiological relevance. […]

[2] = SAXS of neat and hydrated amphiphiles (phase, lattice parameter); type: physicochemical; conditions: for lattice parameter, hydrated / phase, hydrated: excess water
Protocol: SAXS analyses of the bulk and lyotropic phases of the amphiphiles were performed on a Bruker NanoSTAR laboratory SAXS instrument (Brucker AXS, Kalsruhe, Germany).
(§1) The equilibrated lyotropic phases were placed into a demountable button sample cell. For the analysis of the dispersions, a multi-capillary holder was used. Button cells and capillary holder interchangeably fit into a block setup that was temperature-controlled with a Peltier heater-cooler system. 2D scattering images were radially averaged to conventional 1 D scattering plots and as a function of the q value (Å^−1) where q is the length of the scattering vector which was calculated using the formula q=(4π/λ) sin(θ/2), where λ is the wavelength and θ is the scattering angle.
(§2) Small angle X-ray scattering patterns of emulsions and liposomes display large broad peaks while liquid crystalline phases of highly ordered nanostructured particles such as cubosomes and hexosomes display distinct sharp peaks. The relative positions of the peaks (“spacing”) allows for the elucidation of the symmetry of the structure. The interplanar distance (d) between two reflecting planes may be calculated using the formula d=(2π)/q, where q is the absolute position of the peak. This, in turn allows for the calculation of the lattice parameter (a), the size of the unit cell, to be calculated.

[3] = SAXS / synchrotron SAXS of dispersed nanoparticles; type: physicochemical; conditions: dispersion with PEG stabiliser
Protocol: as §1, §2
The CP prodrug amphiphiles were hydrated with warm PBS containing 10-30% PEG4K-oleoyl or other steric stabilisers such F108 or F127 and sonicated in a sonicator bath and using a probe sonicator resulting in the lipid emulsion. The nanoparticles were then processed through a polycarbonate membrane (3×400 nm, 3×200 nm and 3×100 nm) using an extruder (Avestin, LipoFast LF-50) in order to ensure homogenous sizing. The CP prodrug-phospholipid/cholesterol nanoparticles were prepared by mixing the CP amphiphiles, DMPC and cholesterol in ethanol, followed by vigorous mixing and gentle evaporation under reduced pressure resulting in a thin film. The thin film was then hydrated with warm PBS containing 10-30% of PEG4K-oleoy solution, sonicated in a sonicator bath and using a probe sonicator resulting in the lipid emulsion. The nanoparticles were then processed through a polycarbonate membrane (3×400, 3×200 nm, 9×100 nm) using an extruder (Avestin, LipoFast LF-50) in order to ensure homogenous sizing between 20-200 nm.

[4] = Reduction kinetics of Pt (IV) prodrug nanoparticles with ascorbic acid (LC-MS); type: in vitro ADME
Protocol: The reducing agent was applied at concentrations corresponding to those found in the living cells' environment, e.g. 1 mM ascorbic acid or 2 mM glutathione (GSH).
Dispersed nanoparticles of Pt (IV) prodrug amphiphiles were mixed with GSH, ascorbic acid or their combination. The ratios of the reducing agents to platinum prodrugs were 10:1 or 50:1 for ascorbic acid and 20:1 for GSH. The reduction kinetics was analysed by LC-MS via monitoring the peaks related to each prodrug amphiphile. The prodrugs were detected by negative ions optimised for each platinum amphiphile. The reduction kinetics was plotted as the percentage of the area under the peak of Pt (IV)-prodrug compared to the peak before the addition of the reducing agent against the time of incubation. At each time point 10 μl of a sample withdrawn from the reaction solution was injected directly into a Phenomenex C8 150 mm×2 mm 5 μm Luna column (Phenomenex, Australia). A 100% Methanol solution was used as the mobile phase with a flow rate of 0.5 ml/min for 8 minutes. The sample after the column separation was eluted to the ESI source. […] The samples were well maintained at a temperature of 37° C. during the entire measurement by incubation in the temperature-controlled auto-sampler. Data was acquired and processed with Xcalibur Quan chromatography software.

CC(C)CCCC(C)CCCC(C)CCCC(C)CC(=O)[O][Pt]([NH2])([NH2])([Cl])([Cl])[O]C(=O)CC(C)CCCC(C)CCCC(C)CCCC(C)C (mixture of isomers) [CP-bis (phytanoyl), cis,cis,trans-[PtCl2(NH3)2(phytanoyl)2]]
POM observation on exposure to water [1]: amenable to swelling to some extent
Appearance of the Lyotropic phase at excess water (25° C.-50° C.) [1]: No distinct mesophases
lattice parameter, neat non-hydrated ([2]; 25° C.): 37.3 ± 0.5 Å
phase, neat non-hydrated ([2]; 25° C.): LC1
lattice parameter, neat non-hydrated ([2]; 37° C.): 37.3 ± 0.5 Å
phase, neat non-hydrated ([2]; 37° C.): LC1
lattice parameter, hydrated ([2]; 25° C.): 37.3 ± 0.5 Å
phase, hydrated ([2]; 25° C.): LC1
lattice parameter, hydrated ([2]; 37° C.): 39.8 ± 0.5 Å
phase, hydrated ([2]; 37° C.): LC1

CCCCCCCC/C=C\CCCCCCCC(=O)OCCOCCOCCOC(=O)[O][Pt]([NH2])([NH2])([Cl])([Cl])[O]C(=O)OCCOCCOCCOC(=O)CCCCCCC/C=C\CCCCCCCC [CP-bis (PEG3-oleoyl), cis,cis,trans-(PtCl2(-triethyleneglycolyl-oleoyl)2)]
POM observation on exposure to water [1]: formation of a lamellar liquid crystalline structures
lattice parameter, hydrated ([2]; 25° C.): 43.93 ± 0.5 Å
lattice parameter, neat non-hydrated ([2]; temperature not given): 40.80 ± 0.5 Å
lattice parameter of dispersed nanoparticles [3]: 44.28±0.5 Å
structure of dispersed nanoparticles [3]: lamellar dispersed nanoparticle

CCCCCCCCCCCC(=O)[O][Pt]([Cl])([Cl])[O]C(=O)CCCCCCCCCCC.N.N [CP-bis (lauroyl), cis,cis,trans-[PtCl2(NH3)2(lauroyl)2]]
POM observation on exposure to water [1]: no observable difference after hydration with water at either 25 or 37 °C

CCCCC/C=C\C/C=C\CCCCCCCC(=O)[O][Pt]([Cl])([Cl])[O]C(=O)CCCCCCC/C=C\C/C=C\CCCCC.N.N [CP-bis (linoleoyl), cis,cis,trans-[PtCl2(NH3)2(linoleoyl)2]]
POM observation on exposure to water [1]: amenable to swelling to some extent
Appearance of the Lyotropic phase at excess water (25° C.-50° C.) [1]: No distinct mesophases
lattice parameter, hydrated ([2]; temperature not given): 33.5 ± 0.5 Å
phase, hydrated ([2]; temperature not given): LC1
lattice parameter, neat non-hydrated ([2]; temperature not given): 33.5 ± 0.5 Å
phase, neat non-hydrated ([2]; temperature not given): LC1

CCCCCCCCCCCCCC(=O)[O][Pt]([Cl])([Cl])[O]C(=O)CCCCCCCCCCCCC.N.N [CP-bis (myristoyl), cis,cis,trans-[PtCl2(NH3)2(myristoyl)2]]
POM observation on exposure to water [1]: amenable to swelling to some extent

CCCCCCCC/C=C\CCCCCCCC(=O)[O][Pt]([NH2])([NH2])([Cl])([Cl])[O]C(=O)CCCCCCC/C=C\CCCCCCCC [CP-bis (oleoyl), cis,cis,trans-[PtCl2(NH3)2(oleoyl)2]]
POM observation on exposure to water [1]: amenable to swelling to some extent
Appearance of the Lyotropic phase at excess water (25° C.-50° C.) [1]: No distinct mesophases
lattice parameter, hydrated ([2]; temperature not given): 34.2 ± 0.5 Å
phase, hydrated ([2]; temperature not given): LC1
lattice parameter, neat non-hydrated ([2]; temperature not given): 34.2 ± 0.5 Å
phase, neat non-hydrated ([2]; temperature not given): LC1

CCCCCCCCCCCCCCCC(=O)[O][Pt]([Cl])([Cl])[O]C(=O)CCCCCCCCCCCCCCC.N.N [CP-bis (palmitoyl), cis,cis,trans-[PtCl2(NH3)2(palmitoyl)2]]
POM observation on exposure to water [1]: amenable to swelling to some extent

CCCCCCCC/C=C\CCCCCCCC(=O)OCCOCCOCCNC(=O)CCC(=O)[O][Pt]([NH2])([NH2])([Cl])([Cl])[O]C(=O)CCC(=O)NCCOCCOCCOC(=O)CCCCCCC/C=C\CCCCCCCC [CP-bis(suc-amino-PEG3-oleoyl), cis,cis,trans-(PtCl2(NH3)2-(succinoyl-triethylene glycolyl-oleoyl)2)]
lattice parameter, hydrated ([2]; 25° C.): 46.54 ± 0.5 Å
lattice parameter, hydrated ([2]; 37° C.): 46.33 ± 0.5 Å
lattice parameter, neat non-hydrated ([2]; temperature not given): 46.20 ± 0.5 Å
lattice parameter of dispersed nanoparticles [3]: 47.62±0.5 Å
structure of dispersed nanoparticles [3]: multilamellar dispersed nanoparticle

CCCCCCCCCCCCCC(=O)[O][Pt]1([NH2])([NH2])([O]C(=O)CCCCCCCCCCCCC)[O]C(=O)C2(CCC2)C(=O)[O]1 [Carboplatin-bis (myristoyl), cis, trans [(Diamine) (1,1-cyclobutanedicarboxylato) (bis myristoyl)]]
maximum reduction ([4]; ascorbic acid as reducing agent, up to 24 h): 80%
Appearance of the Lyotropic phase at excess water (25° C.-50° C.) [1]: No distinct mesophase

CCCCCCCCCCCCCC(=O)OCCOCCOCCNC(=O)CCC(=O)[O][Pt]1([O]C(=O)CCC(=O)NCCOCCOCCOC(=O)CCCCCCCCCCCCC)[O]C(=O)C2(CCC2)C(=O)[O]1.N.N [Carboplatin-bis (suc-PEG3-myristoyl), cis, [Pt (Diamine) (1,1-cyclobutanedicarboxylato) (succinylamide-triethyleneglycol-myristoyl)2]]
Appearance of the Lyotropic phase at excess water (25° C.-50° C.) [1]: Lamellar

cis, trans [Oxaliplatin-bis (myristoyl), cis, trans [Pt ((1R, 2R)-1,2 cyclohexanediamine-N,N′) (oxalate(2-)O,O′) (myristoyl)2]]
reduction rate compared with carboplatin prodrug ([4]; 1 mM ascorbic acid, 0.1 mM prodrug in DMPC/cholesterol nanoparticles): higher rate up to 3 h compared with carboplatin prodrug
